Reference: article PMC2323111, “Intervening with Urinary Tract Infections Using Anti-Adhesives Based on the Crystal Structure of the FimH–Oligomannose-3 Complex” (PLoS ONE, 2008)
Like-named read-outs stand apart in the source and are kept apart here.

How the values were obtained:
FimH [1] = target: T1, FimH (Escherichia coli, UniProt P08191); test: SPR, competition in solution with immobilized Fab 1C10; format: binding
Target sequence in this assay (P08191 22-179): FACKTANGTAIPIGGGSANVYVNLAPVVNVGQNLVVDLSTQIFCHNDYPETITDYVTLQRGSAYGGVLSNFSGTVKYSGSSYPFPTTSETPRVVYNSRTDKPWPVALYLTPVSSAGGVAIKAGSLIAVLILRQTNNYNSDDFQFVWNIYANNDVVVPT

FimH [2] = target: T1, FimH; test: inhibition of FimH-dependent bacterial adhesion to […] bladder cells, fimH-negative control; format: cell-based; parameters: J96 FimH expressed from plasmid pMMB66 on type 1 pili of AAEC185(pUT2002) E. coli
Target sequence in this assay (P08191 22-300): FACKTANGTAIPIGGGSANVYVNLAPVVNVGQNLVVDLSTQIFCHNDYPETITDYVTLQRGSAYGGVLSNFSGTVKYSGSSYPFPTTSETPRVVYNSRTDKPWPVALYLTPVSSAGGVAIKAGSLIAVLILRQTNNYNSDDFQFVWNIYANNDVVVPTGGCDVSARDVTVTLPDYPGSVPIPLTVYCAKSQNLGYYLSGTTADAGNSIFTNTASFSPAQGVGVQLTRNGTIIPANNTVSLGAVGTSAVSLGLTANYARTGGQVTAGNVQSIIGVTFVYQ

FimH [3] = target: T1, FimH; test: co-crystal structure, […] Å; format: binding
Target sequence in this assay (P08191 22-179): as the sequence (P08191 22-179) above

OC[C@H]1O[C@H](O[C@H]2[C@H](O)[C@@H](CO)OC(O)[C@H]2O)[C@@H](O)[C@@H](O)[C@@H]1O (mixture of isomers) [Manα1,3Man]
Kd (FimH [1]): 281 nM

CCCCCCCO[C@H]1O[C@H](CO)[C@@H](O)[C@H](O)[C@@H]1O [HM, heptyl α-D-mannose]
inhibition of FimH-dependent bacterial adhesion to 5637 bladder cells, fimH-nega (FimH [2]): HM is more efficient at reducing FimH-mediated bacterial adherence, in accordance with its higher affinity for FimH

CO[C@@H]1O[C@H](CO)[C@@H](O)[C@H](O[C@H]2O[C@H](CO)[C@@H](O)[C@H](O)[C@@H]2O)[C@@H]1O [Manα1,3ManβOMe]
Kd (FimH [1]; read-out: Kd): 112 nM

CC(=O)N[C@H]1[C@H](O[C@H]2[C@H](O)[C@@H](NC(C)=O)C(O)O[C@@H]2CO)O[C@H](CO)[C@@H](O[C@@H]2O[C@H](CO[C@H]3O[C@H](CO)[C@@H](O)[C@H](O)[C@@H]3O)[C@@H](O)[C@H](O[C@H]3O[C@H](CO)[C@@H](O)[C@H](O)[C@@H]3O)[C@@H]2O)[C@@H]1O (stereo partly shown) [oligomannose-3]
co-crystal structure, 2.1 Å (FimH [3]): Oligomannose-3 has been crystallized in complex with the FimH RBD.
